From patent publication US9744196B2, “Composition for parenteral administration, method for producing and method use thereof” (N2 PHARMACEUTICALS LTD, priority 2013, dated 2017)

Test system: white rats
Assay: Adaptogenic (antistress) properties, shaker-induced transport stress
Format: in vivo
Description: Tests were conducted on 84 white rats and 36 white mice using pharmacological, haematological, biochemical and immunologic assays known in the art. Upon studying beneficial effects of composition A on the organisms of laboratory animals, certain haematological and immunobiological indices of the test and control animals were considered. Haematological parameters were evaluated in blood specimens by methods known in the art: white blood cells count per 1 cubic millimeter using Gorjaev's chamber. The following immunobiological indices were counted: blood protein content, glucose, phagocytosis and a number of other parameters, characterizing condition of an organism. The total protein content in blood serum was measured by refractometric analysis. Refractive index of blood serum depends mainly on the amount of proteins.
Glucose concentration was measured using the ortho-toluidine method based on staining of glucose compound with ortho-toluidine in acetic acid solution, the intensity of said being proportional to the glucose concentration.
The test was conducted on 12 rats, 4 animals being in each of three groups. Stress in experimental white rats was induced using a shaking machine simulating transport (physical) stress. The box with animals was placed onto the shaker and held atop the operating machine for 30-40 min. The most informative parameters, characterizing the onset and development of stress response (stress mediators): glucose, total protein and leukocytes (WBC) levels, were measured in blood of the white rats.
Composition A was administered to the animals of the 1st group intramuscularly 3 days previous to stress induction in a dose of 0.2 ml. 2.5% solution of neuroleptic agent aminazin in a dose of 0.5 mg per capita was administered to the animals of the 2nd group. A normal saline solution was administered intramuscularly to the animals of the 3rd (control) group. Rats' blood examination to estimate the above parameters was performed 1 h and 24 h after stress induction.

[1] = 24 hours after stress induction

CN(C)CCCN1c2ccccc2Sc2ccc(Cl)cc21 [Aminazin, aminazin]
Glucose (1 hour after stress induction): 6.46 ± 0.45 mmol/L
Leukocytes (WBC) (1 hour after stress induction): 4.3 ± 0.4 10^3/uL
Total protein (1 hour after stress induction): 66.0 ± 0.5 g/L
Glucose (1 hour after stress induction, listed as aminazin): 6.46 ± 0.45 mmol/L
Glucose [1]: 6.25 ± 0.3 mmol/L
Leukocytes (WBC) [1]: 6.1 ± 0.3 10^3/uL
Total protein [1]: 72.4 ± 1.6 g/L
Glucose (24 hours after stress induction, listed as aminazin): 6.25 ± 0.3 mmol/L
